The text below walks through data of patent publication US20240041975A1, “ANTICANCER PEPTIDE AND USE THEREOF FOR INHIBITING CANCER CELL VIABILITY” (NATIONAL TSING HUA UNIVERSITY, priority 2022, published 2024).

The nature of data set [1]: MTT assay cell cytotoxicity, normal cell HFW. It counts as cell-based. Conditions: human, human diploid fibroblast (HFW) cells, 24 hr treatment. As for the experimental part: (§1) Human non-small cell lung cancer line A549, PC9, and H1975 (Osimertinib sensitive; Gefitinib toleran; belonged to T790M mutations), oral squamous cell carcinoma cell line OECM-1 were cultured in RPMI medium supplemented with 10% fetal bovine serum (FBS) and antibiotic. Human oral squamous cell carcinoma cell line C9 and human diploid fibroblast (HFW) were cultured in DMEM medium supplemented with 10% fetal bovine serum (FBS) and antibiotic. Cells were cultured in a humidified incubator containing 5% CO2 at 37° C.
(§2) The cytotoxicity of cancer cells via administrating the peptides were measured by the MTT assay. All cancer cell lines were seeded in a 96-well plate at a density of 5×10^4 cells per well and incubated for 24 hr. After the medium was removed, using the anti-cancer peptides ranged from 50 μM to 0.78 μM for treatment, diluted in the growth medium, and administered 24 hr. The media was then removed, determined cell viability by incubated for 3 hours at 37 C with the addition of 100 μL Thiazolyl Blue Tetrazolium Bromide (MTT 0.5 mg/ml in PBS; M2128, Sigma-Aldrich) diluted by ratio 1:9 in the growth medium. Next, the medium with MTT solution was removed, added 100 μl Dimethyl Sulfoxide (DMSO, D4540, Sigma-Aldrich) for dissolving the formazan crystal. Cell survival rate was calculated by measuring the absorbance at 570 nm using a microplate reader (Sunrise TM, TECAN, Switzerland). Medium without peptide and mixed with H2O2 represented positive and negative control, respectively. The experiments were repeated at least three times. Cell Viability percentage was calculated as follows: […]

Data set [2] concerns Human non-small cell lung cancer line A549. It counts as cell-based. Conditions: for pIC50: 24 h. On the procedure: as §1, §2
Data set [3] concerns Human non-small cell lung cancer line PC9. Nature of the data set: MTT assay cytotoxicity, PC9. Conditions: 24 hr treatment, read-out: anticancer activity Human non-small cell lung cancer line PC9. It counts as cell-based. As for the experimental part:
as §1, §2

In data set [4] the test system is human lung cancer cell/cell line and oral squamous cell carcinoma cell/cell line. Nature of the data set: MTT assay, overall anticancer spectrum. It is filed as cell-based. The note with it: for efficiency to the human lung cancer cell line: human lung cancer cell lines, FIG. 1A-1C. On the procedure:
as §1, §2

Data set [5] relates to Human non-small cell lung cancer line H1975. Nature of the data set: MTT assay cytotoxicity, H1975. It is filed as cell-based. Conditions: 24 hr treatment, read-out: anticancer activity Human non-small cell lung cancer line H1975. On the procedure: as §1, §2
The subject of data set [6] is oral squamous cell carcinoma cell line OECM-1. Nature of the data set: MTT assay cytotoxicity, OECM-1. It is filed as cell-based. The note with it: 24 hr treatment, read-out: anticancer activity oral squamous cell carcinoma cell line OECM-1. As for the experimental part: as §1, §2
In data set [7] the test system is Human oral squamous cell carcinoma cell line C9. Nature of the data set: MTT assay cytotoxicity, C9. It is filed as cell-based. Conditions: for activity against oral squamous cell carcinoma cell line C9 (in words): FIG. 1E; for pIC50: MTT, 24 hr treatment, read-out: anticancer activity oral squamous cell carcinoma cell line C9. As for the experimental part:
as §1, §2

Data set [8] concerns Human non-small cell lung cancer cell A549. Nature of the data set: ROS release (DCFDA assay). It counts as cell-based. The note with it: 4×IC50 (6.452 μM); 120 minutes. On the procedure:
FIG. 6 depict that release of ROS from cancer cells were administrated with the peptide. Human non-small cell lung cancer cell A549 administrated with 6.452 μM (4×IC50) of K1R12-AGP-RW for 120 min. The cells of control group were treated with RPMI-1640 without phenol red. Data are presented as means ±SEM, **p<0.05, versus the control group. Data of FIG. 6 were analyzed by Student's t-test.
The 2′,7′-dichlorofluorescin diacetate (DCFDA) intracellular ROS detection assay kit from Abcam (UK, ab113851) was used for measuring ROS release. Cells were seeded in a 96 well black clear bottom plate with 4×10^4 per well, culture 24 hours. Remove medium and washed once in pre-warm 1× PBS with 100 μl per well. Furthermore, cells were treated with 25 μM DCFDA in 1× buffer solution incubated for 120 minutes. Washed again with a buffer solution of 100 μL/well, before adding the 4×IC50 K1R12-AGP-RW dissolved in RPMI without phenol red, and incubated 60,120 and 240 minutes. Cells incubated with RPMI without phenol red were used as a negative control, and the positive control was tertbutyl hydroperoxide (TBHP). Using a fluorescence plate reader (VICTOR3, PerkinElmer, USA) determined at an excitation wavelength of 485 nm and an emission wavelength of 535 nm.

Data set [9] has the same test system. Nature of the data set: HMGB1 secretion by western blot. It is filed as cell-based. Conditions: 4×IC50 (6.452 μM). As for the experimental part:
FIG. 3 depict that the release level of HMGB1 was analyzed by Western Blot. Human non-small cell lung cancer cell A549 administrated with 6.452 μM (4×IC50) of K1R12-AGP-RW for different time period (60 min, 120 min, 240 min), the HMGB1 release form lysate (L) to the supernatant (S). A549 treated with medium without serum as control group.
In one embodiment, cancer cells were seeded with 5×10^5 cells/well in 6-cm polystyrene in complete medium and allowed to adhere 24 hr. Cells were treated with K1R12-AGP-IR, K1R12-AGP-RW, K1R12-AGP-RI at 4×IC50 dilution in medium without serum and incubated at 37° C. for different time points (60 min,120 min,240 min). RPMI medium without peptide treated for 24 hr which was used as a negative control. Supernatants (S) were collected and centrifuged at 1,500 rcf for 5 minutes. Cell lysates (L) use 500 μL Trypsin-EDTA harvested after centrifuged at 750 g for 5 minutes and washing lysate twice with PBS. And addition 150 μL RIPA and protease inhibitor blended buffer, then centrifugation same condition with supernatant(S). Sonication with 5 cycle number, time on or off 30 sec, and centrifugation for 10 minutes, 1400 g at 4° C., thereafter lysed using a 6× Sample buffer, 0.1M DTT (Sigma), and water. Protein concentrations of cell extracts were determined by Bradford reagent. Both supernatants and lysate were boiled in 80° C. 10 minutes and resolved by 12% sodium dodecyl sulfate-polyacrylamide gel electrophoresis (SDS-PAGE), and then electro transferred to a polyvinylidene difluoride (PVDF) membrane (Millipore). The membrane was blocked in 5% skimmed milk and incubated with the HMGB1 antibody (rabbit, polyclonal, Abcam ab 18256). The membrane was then rinsed several times with TB ST, incubated with horseradish peroxidase (HRP)-conjugated secondary antibody (Abcam ab6721). The signals were visualized by enhanced chemiluminescence (ECL) and recorded by a detected system (Image Quant LAS 4000mini).

Data set [10] shares this test system. Nature of the data set: Extracellular cytochrome c release (ELISA). It is filed as cell-based. The note with it: 4×IC50 (6.452 μM). As for the experimental part: FIG. 5 depict that release of mitochondria DAMPs Cytochrome c was detected by Elisa kit. Human non-small cell lung cancer cell A549 administrated with 6.452 μM (4×IC50) of K1R12-AGP-RW for different time period (30 min, 60 min, 90 min, 120 min, […]). Data are presented as means ±SEM, ***p<0.005, **p<0.01, versus the control group.
The ELISA kit for detection of cytochrome c was obtained from the R&D System (Minneapolis, MN, USA). Before the experiment, prepare a buffer solution or reagent from the kit. Seed cancer cells 1×10^5 in 96 well incubated 24 hours. After 24 hours, substitute with 4×IC50 K1R12-AGP-RW dilutions in medium, and incubate designated time points (30 min, 60 min, 90 min, 120 min). Following the supernatant was centrifuged at 16000 xg for 10 minutes. Add 50 μL supernatant and 75 μL of cytochrome c conjugate to each well. Then, add 50 μL of standard, control, or sample per well. Mix by tapping the plate frame for 1 minute. Cover with the adhesive strip provided. Incubate for 2 hours at room temperature. A plate layout is provided to record standards and samples assayed. Then use the wash buffer washed 5 times with 400 μL. The last wash removes any remaining Wash Buffer by decanting. […] Detection the cytochrome c at absorbance 450 nm using a microplate reader (Sunrise TM, TECAN, Switzerland).

Data set [11] deals with A549 cell. Description: Killing kinetics (MTT time course). It counts as cell-based, human. Conditions: 4×IC50 (6.452 μM) vs 2×IC50 (3.226 μM), within 240 minutes. As for the experimental part:
To evaluate the cytotoxic activity and time course against the A549 cell, two different concentrations of K1R12-AGP-RW 2×IC50 (3.226 μM), 4×IC50 (6.452 μM) were used. Cells were seeded as described as MTT assay, after 24 hours culture, cell were incubated with 2×IC50 and 4×IC50 peptide solution for 60 minutes, 120 minutes, 180 minutes, 240 minutes. Further incubated in 10% MTT solution for an additional 4 hours. Remove MTT solution and Dimethyl Sulfoxide (DMSO, D4540, Sigma-Aldrich) was added to formazan crystal solubilization. Using a microplate reader (Sunrise TM, TECAN, Switzerland) detecting the absorbance at 570 nm. The experiments were repeated three times independently.

Data set [12] concerns Human non-small cell lung cancer cell A549. Description: ATP release (ENLITEN ATP assay kit, luciferin-luciferase). It counts as cell-based. Conditions: 4×IC50 (6.452 μM). On the procedure:
FIG. 4 depict that Detection ATP release into supernatant was detect after adminstrated with K1R12-AGP-RW. Human non-small cell lung cancer cell A549 administrated with 6.452 μM (4×IC50) of K1R12-AGP-RW for different time period (30 min, 60 min, 90 min, 120 min). Data are presented as means ±SEM, ***p<0.005, **p<0.01, versus the control group. Data of FIG. 4 were analyzed using the one-way ANOVA and multiple comparison test.
The ENLITEN ATP assay kit (Promega, Madison, WI, FF2000) was used for the detection of ATP release levels. Above all seeds, cancer cells in 96 well with 1×10^5 cell per well, incubated 24 hours. On day 2, replace the medium with the fresh medium containing 4×IC50 K1R12-AGP-RW incubated at different time points (30 min, 60 min, 90 min, 120 min). The supernatant was college and centrifuged 500 xg for 10 minutes to remove debris. Add reconstituted rL/L reagent with the sample and detection immediately, expressed as relative light units (RLU). Serially diluted ATP standard to calculating ATP concentrations generates a regression curve. All reagents in this kit must be returned to room temperature before use.

pIC50: −log10 of the molar value.

“Ac-KRIVQRIKDFLRAGPIKDFLR-NH2 [SEQ ID NO: 5, Ac-KRIVQRIKDFLR-AGP-IKDFLR-NH2]” showed an IC50 at 24 h in [1] of 13.5 µM. Further, the pIC50 in data set [2] was 5.20; in data set [3], 4.98; in [5], 4.93; in [6], 4.94; in data set [7] it was 4.60. Besides, the anticancer activity spectrum result in data set [4] (human lung cancer and oral squamous cell carcinoma cell lines, MTT) is reported as “broad-spectrum anticancer activity”. Also, the “efficiency to the human lung cancer cell line” value in [4] was “good efficiency”. In data set [7], the “activity against oral squamous cell carcinoma cell line C9 (in words)” value is “weak”.
Turning to “Ac-KRIVQRIKDFLRAGPRRLVRI-NH2 [SEQ ID NO: 7, Ac-KRIVQRIKDFLR-AGP-RRLVRI-NH2]”, inhibition in data set [1] was half-maximal at 10.4 µM (IC50 at 24 h). The pIC50 in data set [2] was 5.41; in [3] it was 4.77; in [5] it was 4.86; in data set [6] it was 4.95; in data set [7], 4.52. In addition, the “efficiency to the human lung cancer cell line” value in [4] was “good efficiency”. Besides, the “activity against oral squamous cell carcinoma cell line C9 (in words)” value in data set [7] is “weak”.
Consider “Ac-KRIVQRIKDFLRAGPRRWWRW-NH2 [SEQ ID NO: 6, Ac-KRIVQRIKDFLR-AGP-RRWWRW-NH2]”, for which, in data set [1], it took 11.1 µM to reach half-maximal inhibition (IC50 at 24 h). Besides, the “ROS release versus untreated cell” value in [8] is “significant increase”. The “HMGB1 in cell lysate (L)” value in data set [9] (60, 120, 240 minutes, time-dependent) is listed as “reduce”. Besides, the “HMGB1 in supernatant (S)” value in [9] (after 120 minutes) is listed as “slight increase”; in data set [9] (after 240 minutes), “complete release into the supernatant(S)”. Moreover, the cytochrome c release entry in [10] (120 minutes) was “release at a certain level and keep stabilize”. The “cytochrome c release versus untreated cell” value in data set [10] (240 minutes) was “significant increase”. Also, the pIC50 was 5.79 in data set [2]; 5.27 in [3]; 4.96 in [5]; 5.34 in data set [6]; 5.36 in data set [7]. Also, the “inhibition of A549 compared with the other cancer cells” value in data set [2] (MTT) is recorded as “more effective”. Moreover, the “killing kinetics, 4×IC50 versus 2×IC50” value in [11] was “more rapid kill cancer cells”. The ATP secretion entry in data set [12] (after 30 minutes, with time increased) was “reduced”; in data set [12] (within 30 minutes), “higher level”.
